Measurements from PubChem BioAssay (NCI).
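GI50: concentration for 50% inhibition of growth. TGI: concentration producing complete growth inhibition.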

Legend:
Test in all cases: DTP human tumour cell line panel, 384-well format
HS 578T breast = tested on: HS 578T breast
COLO 205 colon = tested on: COLO 205 colon
RPMI-8226 leukemia = tested on: RPMI-8226 leukemia
DU-145 prostate = tested on: DU-145 prostate
SR leukemia = tested on: SR leukemia
M14 melanoma = tested on: M14 melanoma
HOP-62 NSCLC = tested on: HOP-62 NSCLC
NCI-H460 NSCLC = tested on: NCI-H460 NSCLC
OVCAR-3 ovarian = tested on: OVCAR-3 ovarian
MOLT-4 leukemia = tested on: MOLT-4 leukemia
HOP-92 NSCLC = tested on: HOP-92 NSCLC
A549 NSCLC = tested on: A549 NSCLC
OVCAR-5 ovarian = tested on: OVCAR-5 ovarian
HT29 colon = tested on: HT29 colon
TK-10 renal = tested on: TK-10 renal
UACC-62 melanoma = tested on: UACC-62 melanoma
OVCAR-8 ovarian = tested on: OVCAR-8 ovarian
MALME-3M melanoma = tested on: MALME-3M melanoma
HCT-116 colon = tested on: HCT-116 colon
HCC-2998 colon = tested on: HCC-2998 colon
HCT-15 colon = tested on: HCT-15 colon
SK-MEL-5 melanoma = tested on: SK-MEL-5 melanoma
KM12 colon = tested on: KM12 colon
SK-MEL-28 melanoma = tested on: SK-MEL-28 melanoma
ACHN renal = tested on: ACHN renal
SF-295 CNS = tested on: SF-295 CNS
IGROV1 ovarian = tested on: IGROV1 ovarian
HL-60(TB) leukemia = tested on: HL-60(TB) leukemia
MDA-MB-231 breast = tested on: MDA-MB-231 breast
SF-539 CNS = tested on: SF-539 CNS
A498 renal = tested on: A498 renal
SK-OV-3 ovarian = tested on: SK-OV-3 ovarian
CAKI-1 renal = tested on: CAKI-1 renal
NCI-H522 lung = tested on: NCI-H522 lung
T-47D breast = tested on: T-47D breast
PC-3 prostate = tested on: PC-3 prostate
MDA-MB-468 breast = tested on: MDA-MB-468 breast
U251 glioblastoma = tested on: U251 glioblastoma
NCI/ADR-RES ovarian = tested on: NCI/ADR-RES ovarian
LOX IMVI melanoma = tested on: LOX IMVI melanoma
MDA-MB-435 melanoma = tested on: MDA-MB-435 melanoma
SW-620 colon = tested on: SW-620 colon
SF-268 CNS = tested on: SF-268 CNS
UACC-257 melanoma = tested on: UACC-257 melanoma
SNB-19 CNS = tested on: SNB-19 CNS
BT-549 breast = tested on: BT-549 breast
MCF7 breast = tested on: MCF7 breast
NCI-H322M lung = tested on: NCI-H322M lung
NCI-H23 lung = tested on: NCI-H23 lung
OVCAR-4 ovarian = tested on: OVCAR-4 ovarian
786-0 renal = tested on: 786-0 renal
SN12C renal = tested on: SN12C renal
NCI-H226 lung = tested on: NCI-H226 lung

CO[C@H]1C[C@@H]2CC[C@@H](C)[C@@](O)(O2)C(=O)C(=O)N2CCCC[C@H]2C(=O)O[C@H]([C@H](C)C[C@@H]2CC[C@@H](OC(=O)C(C)(CO)CO)[C@H](OC)C2)CC(=O)[C@H](C)/C=C(\C)[C@@H](O)[C@@H](OC)C(=O)[C@H](C)C[C@H](C)/C=C/C=C/C=C/1C
TGI (HS 578T breast): 1740 nM
GI50 (COLO 205 colon): 11.2 µM
TGI (COLO 205 colon): 23.3 µM
TGI (RPMI-8226 leukemia): 1060 nM
GI50 (DU-145 prostate): 1050 nM
TGI (DU-145 prostate): 15.7 µM
TGI (SR leukemia): 441 nM
GI50 (M14 melanoma): 5.55 µM
TGI (M14 melanoma): 19.8 µM
GI50 (HOP-62 NSCLC): 233 nM
TGI (HOP-62 NSCLC): 13.3 µM
GI50 (NCI-H460 NSCLC): 404 nM
TGI (NCI-H460 NSCLC): 15.5 µM
GI50 (OVCAR-3 ovarian): 867 nM
TGI (OVCAR-3 ovarian): 13.9 µM
TGI (MOLT-4 leukemia): 1540 nM
GI50 (HOP-92 NSCLC): 2750 nM
TGI (HOP-92 NSCLC): 8.39 µM
TGI (A549 NSCLC): 15.4 µM
GI50 (OVCAR-5 ovarian): 12.5 µM
TGI (OVCAR-5 ovarian): 25.4 µM
GI50 (HT29 colon): 2330 nM
TGI (HT29 colon): 12.8 µM
GI50 (TK-10 renal): 12 µM
TGI (TK-10 renal): 26.3 µM
GI50 (UACC-62 melanoma): 1790 nM
TGI (UACC-62 melanoma): 15 µM
GI50 (OVCAR-8 ovarian): 791 nM
TGI (OVCAR-8 ovarian): 15.9 µM
TGI (MALME-3M melanoma): 3.29 µM
GI50 (HCT-116 colon): 3.23 µM
TGI (HCT-116 colon): 15.5 µM
GI50 (HCC-2998 colon): 1200 nM
TGI (HCC-2998 colon): 11.6 µM
GI50 (HCT-15 colon): 473 nM
TGI (HCT-15 colon): 15 µM
GI50 (SK-MEL-5 melanoma): 1630 nM
TGI (SK-MEL-5 melanoma): 11.4 µM
GI50 (KM12 colon): 2220 nM
TGI (KM12 colon): 17.4 µM
GI50 (SK-MEL-28 melanoma): 3.04 µM
TGI (SK-MEL-28 melanoma): 14.7 µM
GI50 (ACHN renal): 2310 nM
TGI (ACHN renal): 15.1 µM
TGI (SF-295 CNS): 3.62 µM
TGI (IGROV1 ovarian): 5.04 µM
GI50 (HL-60(TB) leukemia): 1630 nM
TGI (HL-60(TB) leukemia): 3000 nM
GI50 (MDA-MB-231 breast): 1820 nM
TGI (MDA-MB-231 breast): 7.89 µM
GI50 (SF-539 CNS): 1120 nM
TGI (SF-539 CNS): 15.1 µM
TGI (A498 renal): 14.5 µM
GI50 (SK-OV-3 ovarian): 11.6 µM
TGI (SK-OV-3 ovarian): 27.5 µM
GI50 (CAKI-1 renal): 1260 nM
TGI (CAKI-1 renal): 15.1 µM
GI50 (NCI-H522 lung): 2230 nM
TGI (NCI-H522 lung): 11.5 µM
TGI (T-47D breast): 5.11 µM
GI50 (PC-3 prostate): 1160 nM
TGI (PC-3 prostate): 11.8 µM
TGI (MDA-MB-468 breast): 2530 nM
GI50 (U251 glioblastoma): 2220 nM
TGI (U251 glioblastoma): 14 µM
GI50 (NCI/ADR-RES ovarian): 4.89 µM
TGI (NCI/ADR-RES ovarian): 22.5 µM
GI50 (LOX IMVI melanoma): 1190 nM
TGI (LOX IMVI melanoma): 11.3 µM
GI50 (MDA-MB-435 melanoma): 11.4 µM
TGI (MDA-MB-435 melanoma): 23.6 µM
GI50 (SW-620 colon): 11.2 µM
TGI (SW-620 colon): 23.9 µM
GI50 (SF-268 CNS): 2810 nM
TGI (SF-268 CNS): 14.1 µM
GI50 (UACC-257 melanoma): 8.32 µM
TGI (UACC-257 melanoma): 20.3 µM
GI50 (SNB-19 CNS): 5.96 µM
TGI (SNB-19 CNS): 20.2 µM
TGI (BT-549 breast): 1700 nM
TGI (MCF7 breast): 10.1 µM
GI50 (NCI-H322M lung): 1320 nM
TGI (NCI-H322M lung): 12.7 µM
GI50 (NCI-H23 lung): 1930 nM
TGI (NCI-H23 lung): 15.7 µM
GI50 (OVCAR-4 ovarian): 1530 nM
TGI (OVCAR-4 ovarian): 12.6 µM
GI50 (786-0 renal): 148 nM
TGI (786-0 renal): 14.2 µM
GI50 (SN12C renal): 4.56 µM
TGI (SN12C renal): 19.2 µM
GI50 (NCI-H226 lung): 1110 nM
TGI (NCI-H226 lung): 4.08 µM
